Assay results as given in patent publication US20230293524A1, “OTIC FORMULATIONS FOR DRUG-INDUCED OTOTOXICITY” (Spiral Therapeutics Inc, priority 2019, published 2023).
Entries after “also recorded” stand apart in the source; their conditions may differ.

Columns and labels:
[1] = tested on: outer hair cells (OHCs) and inner hair cells (IHCs); assay: Cochlear explant model: hair cell protection against cisplatin; assay type: cell-based, Sprague-Dawley rats; conditions: for EC100: Rattus norvegicus, read-out: Ex-vivo Efficacy Conc. for complete protection of hair cells (uM)
From the text: (§1) For hair cell and spiral ganglion assessment, postnatal Sprague-Dawley rats (P2-P4) of both sexes are anesthetized with isoflurane and decapitated. Temporal bones are removed and transferred to a cell culture dish with ice-cold Ca^2+/Mg^2+-containing phosphate-buffered saline (PBS; Invitrogen) or cold HBSS medium enriched with glucose. Under microscopic visualization, the cochlear capsules are carefully removed from the temporal bone using forceps and transferred to a new cell culture dish containing ice-cold PBS. The cochleae are then dissected from the cochlear capsule using fine forceps. The stria vascularis is removed from the cochlear tissue and discarded. Dissected cochlear epithelia are transferred to permeable membrane inserts (Millicell organotypic culture plate inserts, Millipore) which are placed into 1 mL of culture media (Dulbecco's modified Eagle's medium (high glucose, Glutamax, 25 mM HEPES) with 10% fetal bovine serum, 1% N2 supplement and 10 units/ml penicillin) in a 6-well plate. Up to 4 cochleae are placed onto each membrane. Explants are placed in a humidified chamber with 5% CO2 at 37° C. for a minimum of 18 hours prior to treatment. Cultures are then pre-treated with test compounds and returned to the incubator for a period of 10 minutes to 48 hours.
(§2) Following the incubation period, cochlear samples are fixed in 4% paraformaldehyde for a minimum of 30 minutes after treatment then permeabilized in 0.5% Triton in PBS (PBST) for 1 hour, followed by overnight incubation at 4° C. in primary antibodies in 10% goat or donkey serum (Sigma). Samples are then rinsed in PBST 2 times for 10 minutes each then incubated in alexa-488 conjugated secondary antibodies for 2 hours at room temperature or overnight at 4° C. in 10% goat or donkey serum (Sigma). Samples are then rinsed 2 times in PBS then incubated in DAPI (1:3000) in PBS for 5 minutes prior to mounting on slides. To evaluate the otoprotective efficacy of the compounds, cochlear samples are immunostained using combination of antibodies generated against markers specific for hair cells (Myosin V1, Myosin VIIA, Parvalbumin, etc.), SGNs (TUJ1, Neurofilament, etc.), f-actin, cell death, cell stress, etc. as well as a nuclear stain to identify cell nuclei.
(§3) Immunostained samples are mounted on glass slides and imaged with an LSM880 laser scanning confocal microscope (Zeiss) or an Operetta high-content imager (Perkin Elmer). The entire explant is imaged for all antibody and nuclear labeling in a 3-dimensional X-Y-Z plane in which the Z-plane consists of a stack imaged at intervals of 0.5-5 μm. The total length of the organ of Corti in each explant is then determined and is divided into 4 equal length regions. Basal, middle and apical hair cells or SGNS are counted at the regions approximately 25%, 50% or 75% of the total cochlear length from the base, respectively. Hair cell survival is determined by counting the number of inner and outer hair cells at these three different regions (base, middle and apex) in each cochlear explant and determining the number of missing/dead hair cells per cochlear region. Hair cell counts are obtained by placing a 200 μm length scale bar parallel to the rows of hair cells at each region and manually counting the total number of outer hair cells (OHCs) and inner hair cells (IHCs) within the 200 μm. Similarly, to evaluate the health and survival of SGNs, the density of SGN fibers or soma is also determined per region by manual counting for same region selected for counting hair cells. Nuclear staining is analyzed to confirm the presence or absence of cell nuclei and to evaluate nuclear health. Image analysis and quantification is performed using Zeiss Zen Blue software, or Perkin Elmer Columbus software.
(§4) Neonatal (P2-P4) Sprague-Dawley rats were used for the experiments described here. Animals were euthanized following anesthesia using isoflurane. Rat cochleae were then dissected in cold HBSS medium enriched with glucose. […]

[2] = tested on: spiral ganglion neurons (SGNs); assay: Cochlear explant model: spiral ganglion neuron protection against cisplatin; assay type: cell-based, Sprague-Dawley rats
From the text: as §1, §2, §3, §4

stria vascularis cells = assay: Dissociated strial cultures, caspase 3/7 activation with cisplatin; assay type: cell-based, Sprague-Dawley rats
Description: For strial explants, the stria vascularis is isolated from the cochlear tissue and transferred to a clean dish with cell culture media. For dissociated strial cultures, the stria vascularis is pulled off the lateral wall and collected separately. Strial cells are then dissociated using a pipette post-trypsinization and seeded onto Poly-d-lysine or collagen-coated 96-well plates. Cells are grown for 48-72 hours to achieve 80-90% confluency before treatment. […] Following treatment, cells are exposed to the Caspase-Glo 3/7 (Promega) reagent for 30 minutes then […] is read on a plate reader. In addition to the cell culture media described above, strial explants can also be maintained in the following media: MEM with Earle's salts, 15 mM HEPES buffer, 2 mM L-glutamine, 10 mg/L MEM non-essential amino acids, 2.5 mg/L fungizone, 100 units/ml penicillin, 100 mg/L streptomycin, 400 μg/L hydrocortisone, 5 mg/L transferrin, 2 nM triiodothyronine, 5 mg/L insulin, […], 10 μg/L epidermal growth factor, and 10% fetal bovine serum.
Following cochlear dissection, Reissner's membrane and the lateral wall were separated and the stria vascularis was then removed from the lateral wall. […] After incubation, cells were lysed using the Promega caspase 3/7 Glo kit and the intensity of caspase 3/7 were read using Perkin-Elmer Enspire plate reader.

[3] = Cisplatin binding, % bound
[4] = Cisplatin reaction kinetics by HPLC; conditions: 50 μM cisplatin + 50 μM of compound (API) in PBS, pH 7.4, 37° C.
Description: Reaction kinetics between Cisplatin and the compound of interest (nucleophile) were monitored by high performance liquid chromatography. Isocratic separation was achieved using a Waters Spherisorb C8 column (4×250 mm, 5 μm, 80 Å). The flow rate was set to 1.00 mL/min. The mobile phase consisted of 5 mM Sodium Octanesulfonate+5 mM Tetrabutyl Ammonium Hydrogen Sulfate+20 mM Potassium Dihydrogen Phosphate adjusted to pH 5.9. Detection was performed at a wavelength of 210 nm.
Reactions were conducted at equimolar concentrations in buffered aqueous media and held at 37° C. Rate constants (k) were determined by monitoring the disappearance of Cisplatin as a function of time.

[5] = Pharmacokinetic study after intratympanic administration; assay type: in vivo, rats
Description: Female rats (Charles River) weighing 200-300 g of approximately 12-16 weeks of age served as subjects (N=4 per group). Prior to any procedures, animals were anesthetized using a combination of xylazine (10 mg/kg), ketamine (50 mg/kg), and acepromazine (1 mg/kg) for up to an hour via the intraperitoneal route. If needed, an intraoperative booster was administered intraperitoneal representing a one-tenth of the original dose.
Intratympanic injection—Each animal was positioned so that the head was tilted at an angle to favor injection towards the round window niche. […] Formulations were delivered using a perfusion pump at the rate of 2 μL/sec. Contact with the round window membrane was maintained for 30 minutes by placing the animal in a recumbent position. During the procedure and until recovery, animals were placed on a temperature controlled (40° C.) heating pad until consciousness was regained at which time they were returned to the vivarium.
Perilymph sampling procedure—The skin behind the ear of anesthetized rats was shaved and disinfected with povidone-iodine. An incision was then made behind the ear, and muscles were carefully retracted from over the bulla. A hole was drilled through the bulla using a dental burr so that the middle ear was exposed and accessed. The cochlea and the round window membrane were visualized under a stereo surgical microscope. The basal turn of bulla was cleaned by using small cotton ball. A unique microhole was hand drilled through the bony shell of the cochlea (cochlear capsule) adjacent to the round window. Perilymph (about 2 μL) was then collected using a microcapillary inserted into the cochlear scala tympani. Perilymph samples were added to a vial containing 18 μL of acetonitrile/water, stored at −80° C. until analysis.
Cochlear epithelium sampling procedure—Under a dissection scope, the bulla was opened, and the cochlea was exposed by removing all surrounding muscles, blood vessels and bone tissues. Holding the bulla, the cochlear wall bony structure was removed working from the base to the apex of the cochlea, exposing the organ of Corti. The exposed cochlear epithelium was gently dabbed with cotton swab to remove excess of liquid from tissue, carefully transferred to labelled tube. Each 2-mL plastic tube that contained acid washed 2.8 mm stainless steel beads was pre-weighed. The tubes were reweighed after adding cochlea epithelium and weights were recorded. All cochlea epithelium samples were placed in dry ice immediately after collection and stored at −80° C. prior to analysis.
Plasma sampling procedure—Blood samples were collected by cardiac puncture into labeled micro-tubes, containing lithium heparin as anticoagulant. Plasma were immediately harvested from the blood by centrifugation and collection for supernatants. All plasma samples were stored at −80° C. prior to analysis.
Samples were extracted by protein precipitation, then vortexed and centrifuged. The supernatant was collected and diluted with two folds of water. A high-performance liquid chromatography system (Agilent 1200 series) with Waters Cortecs C18 Plus column (50*4.6 mm, 2.7 μm) were used. The flow rate was set at 0.700 mL/min. A gradient method with an analytical run time of 5 minutes was used. Mobile phase A consisted of 0.01% ammonium formate, 0.03% formic acid in water. Mobile phase B consisted of 0.01% ammonium formate, 0.03% formic acid in acetonitrile: methanol (70:30, v/v). The gradient began with 30% B, stepped to 70% B at 2.75 minutes and held for 1 minute and then stepped back to 30% B to re-equilibrate the column.
Ionizations and detection of analyte and internal standard were performed on a triple quadruple mass spectrometer, API 5500 Q-Trap equipped with Turbo IonSpray@, from SCIEX (Toronto, Canada). Electro spray ionization (ESI) mass spectra was operated in the positive ion mode. Carbutamide was used as the internal standard (IS). […]

[6] = tested on: cisplatin-induced hearing loss (CIHL); assay: 3-day acute CIHL animal model, ABR thresholds; assay type: in vivo; conditions: 3 days
Description: Study Design includes: […] Formulation was delivered IT unilaterally (right ear) 30 min prior CIS. There was gross visual necropsy observation performed at termination. Tissue collected for CCG evaluation • A: Cis IP/Vehicle P407 • B: Cis IP/STS 16 mg/ml in P407 • C: Cis IP/OMY-150 16 mg/ml in P407 • D: Cis IP/OMY-150 50 mg/ml in P407

[7] = 1.5 hour pretreatment followed by co-treatment at different concentrations with 10 μM cisplatin
[8] = 16 mg/ml in P407, IT 30 min prior CIS 12 mg/kg (IP)

SMILES	EC100 [1]	OHC protection ([1]; ex-vivo cochlear explants)	SGN protection ([2]; ex-vivo cochlear explants)	strial cell protection (stria vascularis cells)	Cisplatin Binding % bound (in 30 min) at 1:10 ratio [3]	protection of hair cells against cisplatin [1, 7]	protection of spiral ganglion neurons against cisplatin [2, 7]	k [4]	In vivo PK in Cochlear Epithelium (24 h after dosing) [5]	plasma exposure after IT injection ([5]; single IT injection)	perilymph and cochlear epithelium exposure after IT injection ([5]; single IT injection, MCT and/or poloxamer formulation)	protection of ABR thresholds [6, 8]	protection of ABR thresholds ([6]; 50 mg/ml in P407, IT 30 min prior CIS 12 mg/kg (IP))	Ex-vivo Efficacy Conc. for complete protection of hair cells ([1]; ex vivo cochlear explants, cisplatin)
O=C(O)c1c[nH]c(=S)[nH]c1=O [5-carboxy-2-thiouracil]	50 to 100 µM	good protection	good protection	good protection	95%									
O=c1cc(-c2ccccc2)[nH]c(=S)[nH]1 [OMY-150, 6-phenyl-2-thiouracil]	50 µM				97%	complete protection	complete protection	0.50 M⁻¹ s⁻¹	~1000 ng/gm CE	significantly lower (e.g. up to 10 times or more) plasma exposure than OMY-141; also recorded: lower plasma exposure than sodium thiosulfate (STS)	good perilymph and cochlear epithelium exposure	strong protection	almost complete recovery	
O=S([O-])([O-])=S.[Na+].[Na+] [STS, sodium thiosulfate, reference compound]					50%			0.52 M⁻¹ s⁻¹	~1100 ng/gm CE			less protection than in previous studies		100 µM
